Reference: paper PMC12473165, “Theranostic Potential of a New ^64Cu-Labeled NOTA-R954 Peptide Conjugate for Kinin B1R Expressing Prostate Cancer” (Pharmaceutics, 2025)
Square brackets hold non-standard residues; d marks the D form. Peptide text beside a SMILES is read from it. Oic = O=C(O)[C@@H]1C[C@@H]2CCCC[C@@H]2N1; d2Nal = N[C@H](Cc1ccc2ccccc2c1)C(=O)O; αMeF = C[C@](N)(Cc1ccccc1)C(=O)O; Orn = NCCC[C@H](N)C(=O)O

How the values were obtained:
hB2R [1] = target: T1, hB2R (Homo sapiens, UniProt P30411); assay: Radioligand competition binding on HEK293 cells stably expressing hB2R; conditions: competition with 1 nM [3H]BK, 1-2 h, serum-free DMEM, means of 2 independent experiments in triplicates, read-out: B2R HEK293 IC50
T1 sequence (P30411 1-391): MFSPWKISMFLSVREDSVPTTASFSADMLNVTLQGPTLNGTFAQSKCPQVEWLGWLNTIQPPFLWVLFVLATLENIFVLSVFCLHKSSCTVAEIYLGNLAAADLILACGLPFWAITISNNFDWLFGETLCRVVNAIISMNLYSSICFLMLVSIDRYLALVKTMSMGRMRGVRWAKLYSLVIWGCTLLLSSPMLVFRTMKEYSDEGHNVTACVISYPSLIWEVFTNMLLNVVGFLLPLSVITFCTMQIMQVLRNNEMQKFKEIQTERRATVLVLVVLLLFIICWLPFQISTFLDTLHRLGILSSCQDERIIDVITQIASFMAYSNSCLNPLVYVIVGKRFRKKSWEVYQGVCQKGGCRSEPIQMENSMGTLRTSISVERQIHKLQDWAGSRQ
Method: Radiolabeled ligand competition binding assays were performed on HEK293 cells stably expressing hB1R or hB2R, as previously described. Cells were cultured in 24-well plates and incubated with 4 nM [^3H]Lys[Leu^8]desArg^9BK (for B1R studies) (ART1583; 90–120 Ci/mmol; American Radiolabeled Chemicals) or 1 nM [^3H]BK (for B2R studies) (NET706; 109 Ci/mmol; Perkin-Elmer, Woodbridge, ON, Canada) in serum-free DMEM for 1–2 h in the absence or presence of increasing concentrations of competitors (10^−11–10^−5M). Radioactivity in the samples was measured using a β-scintillation counter (Tri-Carb 2800; Perkin-Elmer). Binding affinities were expressed as IC50 values, calculated using GraphPad Prism version 8.2.1 software (GraphPad Software, San Diego, CA, USA).

native hB1R = target: T2, native hB1R (Homo sapiens, UniProt P46663); assay: Human umbilical vein (HUV) contractility bioassay, B1R; conditions: isolated human umbilical vein contraction, DBK agonist at submaximal concentration; means of 2 independent experiments
T2 construct: from tissue; host or cells: isolated human umbilical vein (HUV)
T2 sequence (P46663 1-353): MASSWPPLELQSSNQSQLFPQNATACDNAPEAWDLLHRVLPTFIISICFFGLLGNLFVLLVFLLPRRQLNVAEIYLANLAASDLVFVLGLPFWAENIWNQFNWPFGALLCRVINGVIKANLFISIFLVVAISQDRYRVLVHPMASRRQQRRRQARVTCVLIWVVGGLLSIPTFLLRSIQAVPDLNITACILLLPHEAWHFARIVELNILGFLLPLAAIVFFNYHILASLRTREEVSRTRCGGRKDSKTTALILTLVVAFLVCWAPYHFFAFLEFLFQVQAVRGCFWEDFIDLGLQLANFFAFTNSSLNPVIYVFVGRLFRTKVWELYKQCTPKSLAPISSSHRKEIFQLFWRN
Method: The potency (apparent affinity) of non-radioactive NOTA-βAla-R954 peptide conjugates at native inducible B1R was assessed using human tissue bioassays with isolated umbilical veins, as previously described. Collection of umbilical cords for these bioassays was approved by the CHUS Human Research Ethics Committee (protocol #97-14; 21 March 1997), and maternal consent was obtained in all cases. Antagonist affinity was expressed in terms of IC50, which represents the molar concentration of an antagonist that reduces the response to a submaximal concentration of the DBK agonist by 50%.

hB2R [2] = target: T1, hB2R; assay: Human umbilical vein (HUV) contractility bioassay, B2R; set-up: native (HUV) human kinin B1R and B2R; from tissue; host or cells: isolated human umbilical vein (HUV); conditions: isolated human umbilical vein contraction; means of 2 independent experiments
hB1R [3] = target: T3, hB1R (Homo sapiens, UniProt P46663); assay: Radioligand competition binding on HEK293 cells stably expressing hB1R; set-up: expressed in transfected cells; host or cells: QBI-HEK293A (lentiviral transduction, puromycin selection); conditions: HEK293 cells stably expressing hB1R; competition with 4 nM [3H]Lys[Leu8]desArg9BK, 1-2 h, serum-free DMEM; means of 2 independent experiments in triplicates; read-out: B1R HEK293 IC50
T3 sequence (P46663 1-353): T2 sequence (P46663 1-353)

hB1R [4] = target: T3, hB1R; assay: NFAT-eGFP reporter assay in CHO-hB1R-NFAT-eGFP cells; assay type: cell-based; set-up: expressed in transfected cells; host or cells: CHO (hB1R-expressing line, then transduced with NFAT-eGFP reporter)
From the text: The pLenti-6V5-NFAT-eGFP vector was generated from the pSIRV-NFAT-eGFP vector (a gift from Peter Steinberger, Addgene plasmid #118031). Briefly, NFAT-eGFP gene was PCR amplified using the following primers: 5′-[…]-3′ and 5′-[…]-3′). The amplified gene was then ligated into the ClaI and AgeI restriction sites of the pLenti-6V5 vector. Lentiviruses were produced using the pLenti-6V5-NFAT-eGFP vector in HEK293T cells and used to transduce a hB1R-expressing CHO cell line, followed by selection with 10 µg/mL blasticidin. […] Clones were grown in 4000 nanowells/well in 24-well plates and re-plated into 96-well plates after initial expansion via the ALS CellCelector™ (Sartorius Corporation, Bohemia, NY, USA). After clonal expansion, individual cell lines were evaluated based on their ratio of stimulated fluorescence to basal expression to determine maximum sensitivity.
Fluorescence assays performed on CHO-hB1R-NFAT-eGFP cells. Target cells were plated at 10,000 cells/well in a 96-well microplate (opaque black wells with clear flat bottom, Thermo Scientific, Rockford, IL, USA) using RPMI 1640 medium with 10% fetal bovine serum (FBS). After 24 h, the medium was replaced by RPMI without FBS and phenol red. […] Fluorescence was measured using a TECAN M1000 (Tecan Group Ltd., Männedorf, Switzerland) multimode microplate reader with excitation at 488 nm and emission at 507 nm. Each data point represents a ratio of two values, divided by the average fluorescence of six control wells. […] Antagonist affinity (Kb) was estimated from functional inhibition curves using the Gaddum (Schild) equation assuming competitive antagonism at human B1R: Kb = [B]/(dose-ratio–1), where [B] is the antagonist concentration, and the dose ratio is EC50 + Compound/EC50.

IC50 (hB2R [1]): > 10 µM | IC50 (native hB1R): 3 nM | IC50 (hB2R [2]): > 10 µM | IC50 (hB1R [3]): 2 nM | IC50 (hB1R [4]; hB1R-stably expressing CHO-NFAT cells, antagonist potency, means of two independent experiments, read-out: CHO-NFAT IC50 (Table S1)): 1.4 nM | Kb (hB1R [4]; read-out: B1R-NFAT CHO Kb): 1.4 nM
SMILES: CC[C@H](C)[C@H](NC(=O)[C@@H](Cc1ccc2ccccc2c1)NC(=O)[C@H](CO)NC(=O)[C@](C)(Cc1ccccc1)NC(=O)CNC(=O)[C@@H]1CCCN1C(=O)[C@@H]1C[C@@H]2CCCC[C@@H]2N1C(=O)[C@H](CCCNC(=N)N)NC(=O)[C@H](CCCN)NC(C)=O)C(=O)O [R954, AcOrn[Oic^2,^(αMe)Phe5,DβNal^7,Ile^8]desArg^9-bradykinin] (Ac-[Orn]R[Oic]PG[αMeF]S[d2Nal]I-OH)
